In patent US20250270246A1, “LINCOSAMIDES AND USES THEREOF” (President and Fellows of Harvard College, priority 2022, published 2025):
Counter-ions that a name gives are not always drawn. Like-named read-outs stand apart in the source and are kept apart here.

How the values were obtained:
Experiment in all cases: MIC by broth microdilution (CLSI)
Format in all cases: cell-based
K. pneumoniae JMI-991193 = conditions: Klebsiella pneumoniae, JMI991193, 24 h, read-out: MIC K. pneumoniae JMI-991193
Protocol: (§1) Minimum inhibitory concentrations (MICs) were determined by the broth microdilution method following the Clinical and Laboratory Standards Institute (CLSI) guidelines. Test organisms consisted of standard reference strains from the American Type Culture Collection (ATCC; Manassa, VA, USA) and clinical isolates obtained from JMI Laboratories Inc. (North Liberty, IA, USA), Micromyx repository (MMX; Kalamazoo, MI, USA), and Massachusetts Eye and Ear Hospital (Boston, USA). Before the start of the MIC experiment, standard and test compound stock solutions were prepared in dimethyl sulfoxide (DMSO, Aldrich D2650) at a stock concentration of 2,560 μg/mL. The compound concentration range typically employed for each experiment was 64-0.06 μg/mL (2.5% final DMSO concentration). Iboxamycin was used as a comparator in all experiments. All bacterial strains were sub-cultured on blood agar plates (tryptic soy agar with 5% sheep blood, Hardy Diagnostics) and incubated overnight at 35° C. Organisms were suspended in cation-adjusted Mueller-Hinton broth (CaMHB, BD 212322) and optical density was adjusted to 0.5 McFarland standard. Suspensions were further diluted to obtain a final inoculum of 5×10^5 CFU/mL for broth microdilution experiments. The minimum concentration of compound required to inhibit visible bacterial growth after 24 h of incubation was recorded as the MIC in μg/mL. MICs for P. aeruginosa were recorded in cation-adjusted Mueller-Hinton broth which had been pre-treated with Chelex 100 ion exchange resin according to procedures reported in Ito et al. Antimicrob Agents Chemother (2016) 60 (12), 7396-7401.

E. faecium JMI-990536 = conditions: Enterococcus faecium, JMI990536, 24 h, read-out: MIC E. faecium JMI-990536
Protocol: as §1

[1] = tested on: E. coli ATCC 25922 (HAV#006); conditions: Escherichia coli, ATCC25922, 24 h, read-out: MIC E. coli ATCC 25922
Protocol: as §1

[2] = tested on: S. aureus ATCC 29213 (HAV#001); conditions: Staphylococcus aureus, ATCC29213, 24 h, read-out: MIC S. aureus ATCC 29213
Protocol: as §1

E. coli lptD mutant = conditions: Escherichia coli, 24 h, read-out: MIC E. coli lptD mutant, lptD mutant / ΔlptD mutant; CaMHB, 24 h incubation
Protocol: as §1

S. aureus Clinical (cfr) = conditions: Staphylococcus aureus, 24 h, read-out: MIC S. aureus Clinical (cfr)
Protocol: as §1

[3] = tested on: E. faecalis ATCC 29212 (HAV#005); conditions: Enterococcus faecalis, ATCC29212, 24 h, read-out: MIC E. faecalis ATCC 29212
Protocol: as §1

E. coli ΔtolC = conditions: Escherichia coli, 24 h, read-out: MIC E. coli ΔtolC, ΔtolC; CaMHB, 24 h incubation
Protocol: as §1

S. aureus MMX 3035 = conditions: Staphylococcus aureus, MMX3035, 24 h, read-out: MIC S. aureus MMX 3035
Protocol: as §1

[4] = tested on: A. baumannii ATCC 19606 (HAV#010); conditions: Acinetobacter baumannii, ATCC19606, 24 h, read-out: MIC A. baumannii ATCC 19606
Protocol: as §1

[5] = JMI-991193, CaMHB, 24 h incubation
[6] = JMI-990536, CaMHB, 24 h incubation
[7] = HAV#006, ATCC 25922, CaMHB, 24 h incubation
[8] = HAV#001, ATCC 29213, CaMHB, 24 h incubation
[9] = Clinical (cfr), CaMHB, 24 h incubation
[10] = HAV#005, ATCC 29212, CaMHB, 24 h incubation
[11] = MMX 3035, CaMHB, 24 h incubation
[12] = HAV#010, ATCC 19606, CaMHB, 24 h incubation

SMILES	MIC (K. pneumoniae JMI-991193)	MIC (E. faecium JMI-990536)	MIC [1]	MIC [2]	MIC (E. coli lptD mutant)	MIC (S. aureus Clinical (cfr))	MIC [3]	MIC (E. coli ΔtolC)	MIC (S. aureus MMX 3035)	MIC [4]	MIC (K. pneumoniae JMI-991193; [5])	MIC (E. faecium JMI-990536; [6])	MIC [1, 7]	MIC [2, 8]	MIC (S. aureus Clinical (cfr); [9])	MIC [3, 10]	MIC (S. aureus MMX 3035; [11])	MIC [4, 12]
CC(C)C[C@@H]1CCO[C@@H]2[C@H](CN[C@@H]2C(=O)N[C@@H]2C/C=C\C[C@@H](F)CS[C@H]3O[C@H]2[C@H](O)[C@H](O)[C@H]3O)C1 [FSA1607022, (4S,5aS,8S,8aR)—N-((1R,4R,9R,10R,11R,12S,13R,Z)-4-fluoro-11,12,13-trihydroxy-14-oxa-2-thiabicyclo[8.3.1]tetradec-6-en-9-yl)-4-isobutyloctahydro-2H-oxepino[2,3-c]pyrrole-8-carboxamide formate salt]	8 mg/L	1 mg/L	2 mg/L	≤ 0.06 mg/L	0.25 mg/L	4 mg/L	≤ 0.06 mg/L	0.25 mg/L	4 mg/L	2 mg/L	–	–	–	–	–	–	–	–
CC(C)C[C@@H]1CCO[C@@H]2[C@H](CN[C@@H]2C(=O)N[C@@H]2C/C=C\[C@@H](CN3CCOCC3)CS[C@H]3O[C@H]2[C@H](O)[C@H](O)[C@H]3O)C1 [FSA1608036, (4S,5aS,8S,8aR)-4-isobutyl-N-((1R,4S,8R,9R,10R,11S,12R,Z)-10,11,12-trihydroxy-4-(morpholinomethyl)-13-oxa-2-thiabicyclo[7.3.1]tridec-5-en-8-yl) octahydro-2H-oxepino[2,3-c]pyrrole-8-carboxamide formate salt]	–	–	–	–	–	–	–	0.25 mg/L	–	–	8 mg/L	1 mg/L	1 mg/L	0.5 mg/L	8 mg/L	1 mg/L	16 mg/L	16 mg/L
CC(C)C[C@@H]1CCO[C@@H]2[C@H](CN[C@@H]2C(=O)N[C@@H]2C/C=C/[C@@H](O)CS[C@H]3O[C@H]2[C@H](O)[C@H](O)[C@H]3O)C1 [FSA1608016, (4S,5aS,8S,8aR)-4-isobutyl-N-((1R,4R,8R,9R,10R,11S,12R,E)-4,10,11,12-tetrahydroxy-13-oxa-2-thiabicyclo[7.3.1]tridec-5-en-8-yl) octahydro-2H-oxepino[2,3-c]pyrrole-8-carboxamide formate salt]	–	–	–	–	8 mg/L	–	–	–	–	–	> 64 mg/L	8 mg/L	64 mg/L	8 mg/L	> 64 mg/L	8 mg/L	> 64 mg/L	> 64 mg/L
CC(C)C[C@@H]1CCO[C@@H]2[C@H](CN[C@@H]2C(=O)N[C@H]2[C@H]3O[C@H](S[C@H](c4cn(-c5ccc(F)cc5F)nn4)C/C=C\[C@H]2C)[C@H](O)[C@@H](O)[C@H]3O)C1 [FSA1609052, (4S,5aS,8S,8aR)—N-((1R,3S,7R,8R,9R,10R,11S,12R,Z)-3-(1-(2,4-difluorophenyl)-1H-1,2,3-triazol-4-yl)-10,11,12-trihydroxy-7-methyl-13-oxa-2-thiabicyclo[7.3.1]tridec-5-en-8-yl)-4-isobutyloctahydro-2H-oxepino[2,3-c]pyrrole-8-carboxamide formate salt]	4 mg/L	0.5 mg/L	2 mg/L	0.25 mg/L	0.125 mg/L	0.5 mg/L	0.25 mg/L	0.125 mg/L	0.5 mg/L	1 mg/L	–	–	–	–	–	–	–	–
CC(C)C[C@@H]1CCO[C@@H]2[C@H](CN[C@@H]2C(=O)N[C@H]2[C@H]3O[C@H](S[C@H](c4cn(-c5cc(F)c(F)cc5F)nn4)C/C=C\[C@H]2C)[C@H](O)[C@@H](O)[C@H]3O)C1 [FSA1609051, (4S,5aS,8S,8aR)-4-isobutyl-N-((1R,3S,7R,8R,9R,10R,11S,12R,Z)-10,11,12-trihydroxy-7-methyl-3-(1-(2,4,5-trifluorophenyl)-1H-1,2,3-triazol-4-yl)-13-oxa-2-thiabicyclo[7.3.1]tridec-5-en-8-yl) octahydro-2H-oxepino[2,3-c]pyrrole-8-carboxamide formate salt]	–	–	–	–	0.5 mg/L	–	–	0.25 mg/L	–	–	8 mg/L	0.5 mg/L	4 mg/L	0.25 mg/L	0.5 mg/L	0.25 mg/L	0.5 mg/L	2 mg/L
CC(C)C[C@@H]1CCO[C@@H]2[C@H](CN[C@@H]2C(=O)N[C@@H]2C/C=C/[C@@H](CO)CSC3O[C@H]2C(O)C(O)[C@H]3O)C1 (single isomer, unassigned) [FSA1608025A, formate salt]	–	–	–	–	8 mg/L	–	–	–	–	–	> 64 mg/L	8 mg/L	32 mg/L	4 mg/L	64 mg/L	4 mg/L	64 mg/L	> 64 mg/L
CC(C)C[C@@H]1CCO[C@@H]2[C@H](CN[C@@H]2C(=O)N[C@H]2[C@H]3O[C@H](S[C@H](c4cn(-c5ccc(F)cc5)nn4)C/C=C\[C@H]2C)[C@H](O)[C@@H](O)[C@H]3O)C1 [FSA1609037, (4S,5aS,8S,8aR)—N-((1R,3S,7R,8R,9R,10R,11S,12R,Z)-3-(1-(4-fluorophenyl)-1H-1,2,3-triazol-4-yl)-10,11,12-trihydroxy-7-methyl-13-oxa-2-thiabicyclo[7.3.1]tridec-5-en-8-yl)-4-isobutyloctahydro-2H-oxepino[2,3-c]pyrrole-8-carboxamide formate salt]	16 mg/L	–	1 mg/L	0.5 mg/L	0.5 mg/L	1 mg/L	0.25 mg/L	0.5 mg/L	0.5 mg/L	–	–	–	–	–	–	–	–	–
CC(C)C[C@@H]1CCO[C@@H]2[C@H](CN[C@@H]2C(=O)N[C@@H]2C/C=C\[C@@H](CN3CCCC3)CS[C@H]3O[C@H]2[C@H](O)[C@H](O)[C@H]3O)C1 [FSA1608037, (4S,5aS,8S,8aR)-4-isobutyl-N-((1R,4S,8R,9R,10R,11S,12R,Z)-10,11,12-trihydroxy-4-(pyrrolidin-1-ylmethyl)-13-oxa-2-thiabicyclo[7.3.1]tridec-5-en-8-yl) octahydro-2H-oxepino[2,3-c]pyrrole-8-carboxamide formate salt]	–	–	–	–	4 mg/L	–	–	–	–	–	> 64 mg/L	16 mg/L	> 64 mg/L	32 mg/L	> 64 mg/L	16 mg/L	> 64 mg/L	> 64 mg/L
CC(C)C[C@@H]1CCO[C@@H]2[C@H](CN[C@@H]2C(=O)N[C@@H]2C/C=C\[C@@H](CO)CS[C@H]3O[C@H]2[C@H](O)[C@H](O)[C@H]3O)C1 [FSA1608024, (4S,5aS,8S,8aR)-4-isobutyl-N-((1R,4S,8R,9R,10R,11S,12R,Z)-10,11,12-trihydroxy-4-(hydroxymethyl)-13-oxa-2-thiabicyclo[7.3.1]tridec-5-en-8-yl) octahydro-2H-oxepino[2,3-c]pyrrole-8-carboxamide formate salt]	–	–	–	–	4 mg/L	–	–	–	–	–	> 64 mg/L	2 mg/L	16 mg/L	4 mg/L	64 mg/L	2 mg/L	64 mg/L	> 64 mg/L
